Patent US10052311B2, “PPAR compounds for use in the treatment of fibrotic diseases” (INVENTIVA, priority 2014, dated 2018)
Values joined by “and” are separate entries in the source; they are usually repeats but may differ in a detail not shown here. Identical values can stand only once.

Tests used:
[1] = molecular target: T1, mouse PPARα (Mus musculus, UniProt P23204); test: Transient transactivation assay, Cos-7 cells, chimeric PPARα-Gal4, luciferase reporter; type: cell-based; conditions: Gal4 chimera, mean of 6 experiments
T1 sequence (P23204 200-468 limits assumed): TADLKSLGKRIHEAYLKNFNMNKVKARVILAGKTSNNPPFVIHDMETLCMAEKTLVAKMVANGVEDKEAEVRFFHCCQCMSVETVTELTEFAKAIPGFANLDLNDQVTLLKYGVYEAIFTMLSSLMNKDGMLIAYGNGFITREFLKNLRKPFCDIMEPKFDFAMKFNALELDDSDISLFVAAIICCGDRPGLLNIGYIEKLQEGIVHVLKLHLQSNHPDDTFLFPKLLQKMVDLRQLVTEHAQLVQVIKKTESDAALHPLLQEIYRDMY
Description: (§1) Transfections were performed by a chemical agent (Jet PEI).

[2] = molecular target: T2, human PPARα (Homo sapiens, UniProt Q07869); test: as above; type: cell-based; conditions: Gal4 chimera, mean of 6 experiments
T2 sequence (Q07869 200-468 limits assumed): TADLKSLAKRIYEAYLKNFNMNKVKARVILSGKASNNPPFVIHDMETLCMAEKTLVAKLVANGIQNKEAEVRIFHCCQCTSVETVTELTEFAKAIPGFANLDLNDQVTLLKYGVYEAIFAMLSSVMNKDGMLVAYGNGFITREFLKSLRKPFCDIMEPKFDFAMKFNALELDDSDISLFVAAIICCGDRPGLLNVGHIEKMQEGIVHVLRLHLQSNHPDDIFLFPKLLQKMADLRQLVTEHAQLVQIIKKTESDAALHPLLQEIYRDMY
Description: as §1

[3] = test system: bleomycin-exposed mice; test: Bleomycin-induced skin fibrosis in mice; type: in vivo, mouse; conditions: vs vehicle
Description: The experiments were carried out on 6-week-old male C56BL/6 mice (Janvier, Le Genest-Saint-Isle, France).
0.9% NaCl was used as control (100 μL subcutaneous injections).
On day 21, mice were sacrificed by cervical dislocation, and skin samples were taken and processed for analysis.
Lesional skin areas were excised, fixed in 4% formalin and embedded in paraffin. Five μm thick sections were stained with haematoxylin and eosin. The dermal thickness was analyzed at 100-fold magnification by measuring the distance between the epidermal-dermal junction and the dermal-subcutaneous fat junction at four sites from lesional skin of each mouse. Two independent examiners performed the evaluation before a consensus in case of more of 10% of variability of the measures.
The collagen content in lesional skin samples was explored by hydroxyproline assay. After digestion of punch biopsies (ø3 mm) in 6M HCl for three hours at 120° C., the pH of the samples was adjusted to 7 with 6M NaOH. Afterwards, samples were mixed with 0.06 M chloramine T and incubated for 20 min at room temperature. […] The absorbance was determined at 557 nm with a Spectra MAX 190 microplate spectrophotometer (Molecular Devices, Sunnyvale, Calif., USA).
Total soluble collagen in cell culture supernatants was quantified using a Sircol collagen assay (Biocolor). Briefly, cell culture supernatant was mixed with sirius red dye for 30 minutes at room temperature. After centrifugation, the pellet was dissolved in alkali reagent. Measurement was performed using a SpectraMax 190 microplate spectrophotometer (Molecular Devices) at a wavelength of 540 nm.
Data were expressed as mean±standard error of the mean. The Student t-test was used for statistical analyses. A p value of less than 0.05 was considered as a statistically significant result.

[4] = molecular target: human PPARγ (Homo sapiens, UniProt P37231); test: cell-based
human PPARγ, sequence (P37231 238-505 limits assumed): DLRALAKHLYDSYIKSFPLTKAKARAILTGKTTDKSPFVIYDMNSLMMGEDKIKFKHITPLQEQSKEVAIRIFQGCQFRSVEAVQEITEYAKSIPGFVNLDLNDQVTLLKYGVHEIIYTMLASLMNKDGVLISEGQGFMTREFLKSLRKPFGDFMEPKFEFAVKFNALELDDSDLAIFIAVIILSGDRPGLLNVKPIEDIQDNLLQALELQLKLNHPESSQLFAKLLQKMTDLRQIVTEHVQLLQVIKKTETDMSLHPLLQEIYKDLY

[5] = test system: CCl4-exposed mice; test: Carbon tetrachloride (CCl4)-induced liver fibrosis in mice; type: in vivo, mouse; conditions: vs vehicle
Description: Mice were allowed to habituate for at least 5 days prior to experimentation.
Sunflower oil (twice a week for 3 weeks, ip)/vehicle (once a day for 22 days po), n=7, • 2. […] CCl4 (3.5 mL/kg, twice a week for 3 weeks, ip)/vehicle (once a day for 22 days po), n=8 • 5.
Two days a week for 3 weeks, mice were intraperitoneally administered in the morning with either 100 μL of CCl4 (3.5 mL kg in sunflower oil (v/v, 1/11)) or 100 μL of sunflower oil.
Measured Parameters Collagen
mRNA extraction was performed on small frozen liver samples (50-100 mg).

[6] = test system: anti-GBM exposed mice; test: Anti-GBM induced glomerulonephritis in mice; type: in vivo, mouse; conditions: vs vehicle
[7] = molecular target: mouse PPARγ (Mus musculus, UniProt P37238); test: cell-based
mouse PPARγ, sequence (P37238 238-505 limits assumed): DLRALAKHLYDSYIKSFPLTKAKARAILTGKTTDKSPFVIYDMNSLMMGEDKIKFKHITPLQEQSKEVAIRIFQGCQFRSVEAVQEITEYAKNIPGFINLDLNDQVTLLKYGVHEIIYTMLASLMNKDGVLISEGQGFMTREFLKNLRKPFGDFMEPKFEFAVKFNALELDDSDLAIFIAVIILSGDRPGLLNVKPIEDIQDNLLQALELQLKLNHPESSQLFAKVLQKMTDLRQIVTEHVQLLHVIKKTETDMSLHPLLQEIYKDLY

[8] = test system: primary human dermal fibroblasts; test: TGFβ-induced fibroblasts to myofibroblasts transition (FMT), α-SMA immunocytochemistry; type: cell-based; conditions: Fibroblast, α-SMA-positive cells, 48 h, NC: not converged
Description: (§2) The ability of compound A to inhibit TGFβ-induced lung and dermal fibroblasts to myofibroblasts transition (FMT) was determined by performing immunocytochemistry assays for the myofibroblast marker, α-smooth muscle actin (α-SMA). These assays were carried out using primary human lung or skin fibroblasts (Promocell). The cells were plated in 96-well plates in full growth medium for 24 h, followed by 24 h starvation in serum-free medium. The medium was then replaced by fresh medium containing TGFβ and compound A to be tested (at concentrations ranging from 10^−4 M to 4.5 10^−8 M) for another 48 h. The culture medium was then removed, the cells were fixed with formaldehyde and stained with a primary mouse α-SMA antibody (Sigma) and secondary fluorescence-labelled goat-anti-mouse antibody (Invitrogen). α-SMA expression was quantified using Meta Xpress software. […] Results were expressed as % of α-SMA-positive cells out of the total cell number. The data was normalised to the TGFβ treatment alone, which was taken as 100%. The results present the mean of biological triplicates. Dose-effect curves and IC50 values were calculated using the GraphPad Prism software.

[9] = test system: primary human lung fibroblasts; test: as above; type: cell-based; conditions: Fibroblast, α-SMA-positive cells, 48 h, NC: not converged
Description: as §2

Structure (SMILES): O=C(O)CCCc1cc2cc(Cl)ccc2n1S(=O)(=O)c1ccc2ncsc2c1 [compound A, 5-Chloro-1-[(6-benzothiazolyl)sulfonyl]-1H-indole-2-butanoic acid]
- EC50 [1]: 290 nM
- EC50 [2]: 920 nM
- collagen content (skin) ([3]; 30 mg/kg po 21 days): significantly reduced the collagen content
- dermal thickness ([3]; 30 mg/kg po 21 days): significantly reduced dermal thickness
- hydroxyproline content in lesioned skin ([3]; 30 mg/kg po 21 days): significantly lower
- collagen content (skin) ([3]; 100 mg/kg po 21 days): significantly reduced the collagen content
- dermal thickness ([3]; 100 mg/kg po 21 days): more significantly reduced dermal thickness
- hydroxyproline content in lesioned skin ([3]; 100 mg/kg po 21 days): significantly lower
- EC50 [4]: 180 nM
- Col1a expression (liver) ([5]; 30 mg/kg/day po 22 days): significantly inhibited the expression of Col1a
- TGFβ-1 expression (liver) ([5]; 30 mg/kg/day po 22 days): significantly inhibited the expression of TGFβ-1
- decrease of collagen levels (hepatic fibrosis) ([5]; 30 mg/kg/day po 22 days): 80%
- fibronectin expression (liver) ([5]; 30 mg/kg/day po 22 days): significantly inhibited the expression of fibronectin
- plasma triglycerides ([5]; 30 mg/kg/day po 22 days): significantly reduced plasma triglycerides
- Col1a expression (liver) ([5]; 100 mg/kg/day po 22 days): significantly inhibited the expression of Col1a
- MCP-1 expression (liver) ([5]; 100 mg/kg/day po 22 days): significantly inhibited the expression of MCP-1
- TGFβ-1 expression (liver) ([5]; 100 mg/kg/day po 22 days): significantly inhibited the expression of TGFβ-1
- fibronectin expression (liver) ([5]; 100 mg/kg/day po 22 days): significantly inhibited the expression of fibronectin
- plasma triglycerides ([5]; 100 mg/kg/day po 22 days): significantly reduced plasma triglycerides
- α-SMA expression (liver) ([5]; 100 mg/kg/day po 22 days): inhibited the expression of α-SMA compared to vehicle without reaching significance
- decrease of collagen levels (hepatic fibrosis) ([5]; 100 mg/kg/day po 22 days, 100 mg/kg/day): 89% and 90%
- Col1a expression (kidney) ([6]; 30 mg/kg/day po 7 days): reduced
- Col3a expression (kidney) ([6]; 30 mg/kg/day po 7 days): reduced
- kidney MCP-1 levels ([6]; 30 mg/kg/day po 7 days): reduced
- kidney osteopontin levels ([6]; 30 mg/kg/day po 7 days): reduced
- serum urea levels ([6]; 30 mg/kg/day po 7 days): reduced
- urinary albumin levels ([6]; 30 mg/kg/day po 7 days): reduced
- urinary volume ([6]; 30 mg/kg/day po 7 days): reduced urinary volume compared to vehicle without reaching significance
- Col1a expression (kidney) ([6]; 100 mg/kg/day po 7 days): significantly inhibited Col1a expression
- Col3a expression (kidney) ([6]; 100 mg/kg/day po 7 days): significantly inhibited Col3a expression
- TGFβR-1 expression (kidney) ([6]; 100 mg/kg/day po 7 days): significantly inhibited TGFβ-R1 expression
- kidney MCP-1 levels ([6]; 100 mg/kg/day po 7 days): significantly reduced MCP-1 levels
- kidney osteopontin levels ([6]; 100 mg/kg/day po 7 days): significantly reduced osteopontin levels
- number of pathological glomeruli ([6]; 100 mg/kg/day po 7 days): significantly reduced the number of pathological glomeruli
- serum urea levels ([6]; 100 mg/kg/day po 7 days): significantly reduced urea levels
- urinary albumin levels ([6]; 100 mg/kg/day po 7 days): reduced albumin levels compared to vehicle without reaching significance
- urinary volume ([6]; 100 mg/kg/day po 7 days): reduced urinary volume compared to vehicle without reaching significance
- EC50 [7]: 170 nM
- IC50 [8]: ~11.2 µM
- IC50 [9]: 10.8 µM
